# Measurements published in publication PMC11645656, “MRGPRX4 mediates phospho-drug associated pruritus in a humanized mouse model” (Science translational medicine, 2024).
# Where “and” joins values, the source holds several entries; their conditions need not be identical. Equal values may be shown once.
# Experiments:
# Assay type in all cases: cell-based
# MRGPRX4 (S83) = molecular target: T1, MRGPRX4 (S83) (Homo sapiens, UniProt Q96LA9, L83S); test: EC50 determination, intracellular calcium mobilization in MRGPRX4 stably expressed HEK293 cells (FLIPR Calcium 5, Flexstation-3); parameters: Fig. 1D dose-response, calcium mobilization response (individual replicate) / calcium mobilization response (Fig. 1D dose-response raw data): unit not given here
# T1 construct: expressed in transfected cells
# T1 sequence (Q96LA9 whole entry L83S): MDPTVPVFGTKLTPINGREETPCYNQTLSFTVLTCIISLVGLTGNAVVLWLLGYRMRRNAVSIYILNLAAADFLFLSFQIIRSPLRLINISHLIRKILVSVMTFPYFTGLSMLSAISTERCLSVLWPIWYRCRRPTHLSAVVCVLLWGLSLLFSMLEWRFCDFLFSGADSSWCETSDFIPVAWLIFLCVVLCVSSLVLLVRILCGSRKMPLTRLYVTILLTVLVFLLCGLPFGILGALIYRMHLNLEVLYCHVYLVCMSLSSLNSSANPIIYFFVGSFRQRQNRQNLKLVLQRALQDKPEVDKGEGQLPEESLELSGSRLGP
# Protocol: HEK293 cells and MRGPRX4 stably expressed HEK293 cells were seeded in 100 μl culture media on 96-well plates at a density of 40,000 cells per well and incubated overnight. The next day, the media were replaced with a dye-loading solution from the FLIPR Calcium 5 assay kit (Molecular Devices), diluted in Hank's Balanced Salt Solution (HBSS) with 20 mM HEPES, pH 7.4. After 1 h of incubation at 37°C, cells were allowed to recover for 10 min in the dark at room temperature prior to performing intracellular calcium mobilization assay in a Flexstation-3 instrument with SoftMax®Pro 7.1 software (Molecular Devices). Serial concentrations of tested drugs were prepared in HBSS/HEPES solution at 3X concentration. […] Compounds were tested in triplicates and the signals were averaged. Responses were determined by subtracting the minimum signal (at the baseline before adding the drug) from the maximum signal (obtained after drug stimulation). Four-parameter logistic (4PL) curve fit was used to plot the dose-response curves. […] Both dose-response curve fitting and EC50s calculation are computed with GraphPad Prism software (version: 6.o or above).
# HTLA cells = test: PRESTO-Tango β-arrestin recruitment assay, parental HTLA cells without MRGPRX4 (control, fig. S1)
# Source text: Supplement NIHMS2038790-supplement-table.xlsx, sheet "fig. S1" | column: Concentration (M)
# MRGPRX4 WT (S83) = MRGPRX4 WT (S83) (Homo sapiens, UniProt Q96LA9, L83S); test: PRESTO-Tango β-arrestin recruitment assay, HTLA cells stably expressing WT (S83) MRGPRX4; parameters: expressed in transfected cells; conditions: HTLA::MRGPRX4
# MRGPRX4 WT (S83), sequence (Q96LA9 whole entry L83S, the tested form may be a part): as the sequence (Q96LA9 whole entry L83S) above
# Protocol: HTLA cells, a cell line derived from HEK293 and engineered to stably express a tTA-dependent luciferase reporter and a β-arrestin2-TEV fusion gene, were generously provided by Richard Axel's laboratory. HTLA cells were cultured in growth medium containing 2 μg/ml puromycin and 100 μg/ml hygromycin B in 5% CO2 at 37 °C. Stably MRGPRX4-expressing HTLA cells were generated by transfecting pcDNA3.1(+)-Zeo containing MRGPRX4-Tango construct (either with WT or S83L mutant sequence) into HTLA cells with Lipofectamine 3000 and selecting the successful transfected clones with Zeocin.
# HTLA cells stably expressing either WT or S83L MRGPRX4 were seeded in PDL-coated 96-well white clear bottom cell culture plates with DMEM containing 10% FBS, at a density of 35,000 cells per well and were allowed to attach to the bottom of the wells overnight. The next day, growth medium was replaced with 100 μl of serum-free medium containing the tested drugs at various concentrations, and the cells were then incubated at 37°C for 24 h. On the following day, media with drug solutions was removed and 50 μl per well of Bright-Glo™ Reagent from Bright-Glo™ Luciferase Assay System (Promega) was loaded. The plate was incubated at room temperature in the dark for 5 min, and the relative luminescence units were measured using the Flexstation-3 instrument with SoftMax®Pro 7.1 software (Molecular Devices). Dose response curves and EC50s were analyzed as described above.
# Data are from at least two independent experiments, each performed in
# triplicate, and are depicted as mean ± SEM.
# arrestin2-TEV fusion gene and a tTA -dependent luciferase reporter.
smiles,measurement,setting,value
C[C@@H]1C[C@H]2[C@@H]3CCC4=CC(=O)C=C[C@]4(C)[C@@]3(F)[C@@H](O)C[C@]2(C)[C@@]1(O)C(=O)CO [Dexamethasone],"Fig. 1D dose-response, calcium mobilization response (individual replicate)",MRGPRX4 (S83); Concentration 9.76563e-7 M,-21.027 and -38.068 and -44.01 and -38.887 and -46.292 and -51.601 and -47.998 and -19.021 and -24.245
same,"Fig. 1D dose-response, calcium mobilization response (individual replicate)",MRGPRX4 (S83); Concentration 1.95313e-6 M,-34.306 and -12.488 and -34.424 and -46.421 and -44.65 and -42.861 and -53.58 and -51.620 and -38.055
same,"Fig. 1D dose-response, calcium mobilization response (individual replicate)",MRGPRX4 (S83); Concentration 3.90625e-6 M,-45.647 and -46.32 and -35.376 and -38.61 and -34.811 and -45.234 and -56.373 and -60.668 and -3.309
same,"Fig. 1D dose-response, calcium mobilization response (individual replicate)",MRGPRX4 (S83); Concentration 7.8125e-6 M,-36.025 and -46.229 and -47.556 and -37.359 and -53.743 and -48.739 and -48.609 and -47.284 and -56.875
same,"Fig. 1D dose-response, calcium mobilization response (individual replicate)",MRGPRX4 (S83); Concentration 1.5625e-5 M,-54.866 and -50.537 and -42.313 and -47.552 and -53.2 and -55.3 and -57.812 and -33.441 and -66.652
same,"Fig. 1D dose-response, calcium mobilization response (individual replicate)",MRGPRX4 (S83); Concentration 3.125e-5 M,-56.076 and -45.2 and -44.531 and -46.041 and -46.006 and -58.081 and -60.475 and -59.746 and -11.251
same,"Fig. 1D dose-response, calcium mobilization response (individual replicate)",MRGPRX4 (S83); Concentration 6.25e-5 M,-51.427 and -36.666 and -43.901 and -55.62 and -42.251 and -57.261 and -57.456 and -8.995 and -73.787
same,"Fig. 1D dose-response, calcium mobilization response (individual replicate)",MRGPRX4 (S83); Concentration 0.00025 M,-40.896 and -34.789 and -49.545 and -32.204 and -28.295 and -45.507 and -42.773 and -53.155 and -37.185
same,"Fig. 1D dose-response, calcium mobilization response (individual replicate)",MRGPRX4 (S83); Concentration 0.0005 M,-3.046 and -9.71 and -33.403 and -15.448 and -3.273 and -16.368 and -26.248 and -13.645 and -6.391
same,"Fig. 1D dose-response, calcium mobilization response (individual replicate)",MRGPRX4 (S83); Concentration 0.001 M,-8.458 and -6.416 and -11.748 and -15.382 and -27.522 and -19.884 and -14.893 and -13.481 and -19.179
same,"PRESTO-Tango response (fig. S1), single replicate",HTLA cells; concentration 9.77e-7 M,0.004822 and 0.002858 and 0.001836 and 0.006042 and 0.003642 and 0.003121
same,"PRESTO-Tango response (fig. S1), single replicate",HTLA cells; concentration 1.95e-6 M,0.004669 and 0.01135 and 0.007279 and 0.01201 and 0.004751 and 0.007109
same,"PRESTO-Tango response (fig. S1), single replicate",HTLA cells; concentration 0.000004 M,0.004146 and 0.005626 and 0.002299 and 0.005155 and 0.007205 and 0.002627
same,"PRESTO-Tango response (fig. S1), single replicate",HTLA cells; concentration 0.000008 M,0.006851 and 0.005435 and 0.002472 and 0.006078 and 0.009879 and 0.006343
same,"PRESTO-Tango response (fig. S1), single replicate",HTLA cells; concentration 3.13e-5 M,0.004236 and 0.003572 and 0.004837 and 0.002213 and 0.004661 and 0.004714
same,"PRESTO-Tango response (fig. S1), single replicate",HTLA cells; concentration 6.25e-5 M,0.00398 and 0.007183 and 0.008495 and 0.006729 and 0.001521 and 0.004353
same,"PRESTO-Tango response (fig. S1), single replicate",HTLA cells; concentration 0.00025 M,0.001595 and 0.004197 and 0.004126 and 0.004268 and 0.000295 and 0.005991
same,"PRESTO-Tango response (fig. S1), single replicate",HTLA cells; concentration 0.0005 M,0.002985 and 0.003661 and 0.004712 and 0.003009 and 0.002249 and 0.001042
same,"PRESTO-Tango response (fig. S1), single replicate",HTLA cells; concentration 0.001 M,0.002207 and 0.002577 and 0.002201 and 0.000402 and 0.004573 and 0.000993
same,"PRESTO-Tango response (fig. S1), single replicate",MRGPRX4 WT (S83); concentration 9.77e-7 M,0.05502 and 0.04613 and 0.0583 and 0.05727 and 0.00632 and 0.09586
same,"PRESTO-Tango response (fig. S1), single replicate",MRGPRX4 WT (S83); concentration 1.95e-6 M,0.08603 and 0.06619 and 0.1004 and 0.1201 and 0.05846 and 0.07406
same,"PRESTO-Tango response (fig. S1), single replicate",MRGPRX4 WT (S83); concentration 0.000004 M,0.0533 and 0.07958 and 0.05713 and 0.07013 and 0.1112 and 0.008646
same,"PRESTO-Tango response (fig. S1), single replicate",MRGPRX4 WT (S83); concentration 0.000008 M,0.06153 and 0.0682 and 0.07104 and 0.08136 and 0.03922 and 0.08019
same,"PRESTO-Tango response (fig. S1), single replicate",MRGPRX4 WT (S83); concentration 3.13e-5 M,0.0689 and 0.04671 and 0.04196 and 0.06207 and 0.03885 and 0.05666
same,"PRESTO-Tango response (fig. S1), single replicate",MRGPRX4 WT (S83); concentration 6.25e-5 M,0.03211 and 0.04959 and 0.04067 and 0.02014 and 0.05174 and 0.05049
same,"PRESTO-Tango response (fig. S1), single replicate",MRGPRX4 WT (S83); concentration 0.00025 M,0.07947 and 0.03843 and 0.03927 and 0.03864 and 0.06682 and 0.0517
same,"PRESTO-Tango response (fig. S1), single replicate",MRGPRX4 WT (S83); concentration 0.0005 M,0.06213 and 0.03131 and 0.04202 and 0.04862 and 0.02625 and 0.06059
same,"PRESTO-Tango response (fig. S1), single replicate",MRGPRX4 WT (S83); concentration 0.001 M,0.05095 and 0.05745 and 0.03908 and 0.09388 and 0.02339 and 0.03021
